Measured values taken from patent US9227923B2, “Pesticidal carboxamides” (Bayer Intellectual Property GmbH, priority 2009, dated 2016).

Each molecule was assayed on Tobacco Cutworm (Spodoptera litura) Larvae (assay: Test against tobacco cutworm (Spodoptera litura) larvae, leaf dip). Conditions: Spodoptera litura, foliar, 168 h; active compound concentration of 100 ppm; third instar larvae; after 7 days; read-out: insecticidal activity.
Type: in vivo
Description: Solvent: 3 parts by weight of dimethylformamide
Emulsifier: 1 part by weight of polyoxyethylene alkyl phenyl ether
Leaves of sweet potato were immersed in the test solution at the appropriate concentration, and the leaves were dried in air. The leaves were then placed in a petri dish having a diameter of 9 cm, and ten Spodoptera litura at third instar larvae were released therein. The petri dishes were placed in a temperature-controlled chamber at 25° C. After 2 days and 4 days more sweet potato leaves were added. After 7 days, the number of dead larvae was counted to calculate the insecticidal activity. An insecticidal activity of 100% means that all larvae were killed, whereas an insecticidal activity of 0% means that no larva was killed.
Molecule CCC(=O)NCc1ccc(C(=O)Nc2c(Cl)cc(C(F)(C(F)(F)F)C(F)(F)F)cc2Cl)cc1Cl [Compound 5-230, 3-chloro-N-[2,6-dichloro-4-(1,1,1,2,3,3,3-heptafluoropropan-2-yl)phenyl]-4-[(propionylamino)methyl]benzamide] has a pest or weed control at 100 ppm of 100%. CCc1cc(C(F)(C(F)(F)F)C(F)(F)F)cc(C)c1NC(=O)c1ccc2c(c1)CCC2NC(C)=O (centres unmarked) [Compound 10-2, 1-acetamide-N-[2-ethyl-4-(1,1,1,2,3,3,3-heptafluoropropan-2-yl)-6-methylphenyl]indane-5-carboxamide] gave a pest or weed control at 100 ppm of 100%. In the case of CCc1cc(C(F)(C(F)(F)F)C(F)(F)F)cc(C)c1NC(=O)c1ccc(-n2cncn2)c(CNC(C)=O)c1 [Compound 12-3, 3-(acetamidemethyl)-N-[2-ethyl-4-(1,1,1,2,3,3,3-heptafluoropropan-2-yl)-6-methylphenyl]-4-(1H-1,2,4-triazol-1-yl)benzamide], the pest or weed control at 100 ppm is reported as 100%.

Same assay, conditions: active compound concentration of 100 ppm; third instar larvae; after 7 days
With CCc1cc(C(F)(C(F)(F)F)C(F)(F)Br)cc(C)c1NC(=O)c1ccc(CNC(=O)C2CC2)c(Cl)c1 (racemic) [Compound 5-318] the insecticidal activity was 100%. In the case of CCC(=O)NCc1ccc(C(=O)Nc2c(C)cc(C(F)(C(F)(F)F)C(F)(F)F)cc2C)cc1 [Compound 5-3], the insecticidal activity is reported as 100%. Work on Cc1cc(C(F)(C(F)(F)F)C(F)(F)F)cc(C)c1NC(=O)c1ccc(CNC(=O)CC(F)(F)F)cc1 [Compound 5-7] yielded an insecticidal activity of 100%. With Cc1cc(C(F)(C(F)(F)F)C(F)(F)F)cc(C)c1NC(=O)c1ccc(CNC(=O)c2cccnc2F)cc1 [Compound 5-19] the insecticidal activity was 100%. Molecule Cc1cc(C(F)(C(F)(F)F)C(F)(F)F)cc(C)c1NC(=O)c1ccc(CNC(=O)CC2CC2)cc1F [Compound 5-24] has an insecticidal activity of 100%. With CCc1cc(C(F)(C(F)(F)F)C(F)(F)F)cc(C)c1NC(=O)c1ccc(CNC(=O)CC2CC2)cc1 [Compound 5-31] the insecticidal activity was 100%. CCc1cc(C(F)(C(F)(F)F)C(F)(F)F)cc(C)c1NC(=O)c1ccc(CNC(=O)c2ccccc2Cl)cc1 [Compound 5-37] gave an insecticidal activity of 100%. In the case of CCc1cc(C(F)(C(F)(F)F)C(F)(F)F)cc(C)c1NC(=O)c1ccc(CNC(=O)c2cccc(Cl)c2)cc1 [Compound 5-38], the insecticidal activity is reported as 100%. Work on CCc1cc(C(F)(C(F)(F)F)C(F)(F)F)cc(C)c1NC(=O)c1ccc(CNC(=O)c2ccc(Cl)cc2)cc1 [Compound 5-39] yielded an insecticidal activity of 100%. For CCC(=O)NCc1ccc(C(=O)Nc2c(C)cc(C(F)(C(F)(F)F)C(F)(F)F)cc2CC)c(F)c1F [Compound 5-52], the insecticidal activity was 100%. With CCc1cc(C(F)(C(F)(F)F)C(F)(F)F)cc(C)c1NC(=O)c1ccc(CNC(=O)C2CC2)c(F)c1F [Compound 5-53] the insecticidal activity was 100%. Work on CCc1cc(C(F)(C(F)(F)F)C(F)(F)F)cc(C)c1NC(=O)c1ccc(CNC(=O)CC2CC2)c(F)c1F [Compound 5-54] yielded an insecticidal activity of 100%. For CCc1cc(C(F)(C(F)(F)F)C(F)(F)F)cc(C)c1NC(=O)c1ccc(CNC(=O)CC(F)(F)F)c(F)c1F [Compound 5-55], the insecticidal activity was 100%. Work on CCC(=O)NCc1ccc(C(=O)Nc2c(C)cc(C(F)(C(F)(F)F)C(F)(F)F)cc2CC)c(Cl)c1 [Compound 5-66] yielded an insecticidal activity of 100%. For CCc1cc(C(F)(C(F)(F)F)C(F)(F)F)cc(C)c1NC(=O)c1ccc(CNC(=O)CC2CC2)cc1Cl [Compound 5-67], the insecticidal activity was 100%. With CCc1cc(C(F)(C(F)(F)F)C(F)(F)F)cc(C)c1NC(=O)c1ccc(CNC(=O)CC(F)(F)F)cc1Cl [Compound 5-68] the insecticidal activity was 100%. With CCc1cc(C(F)(C(F)(F)F)C(F)(F)F)cc(C)c1NC(=O)c1ccc(CN)c(Cl)c1 [Compound 5-76] the insecticidal activity was 100%. With CCc1cc(C(F)(C(F)(F)F)C(F)(F)F)cc(C)c1NC(=O)c1ccc(CN)c(Br)c1 [Compound 5-83] the insecticidal activity was 100%. In the case of CCc1cc(C(F)(C(F)(F)F)C(F)(F)F)cc(C)c1NC(=O)c1ccc(CNC(C)=O)c(C)c1 [Compound 5-99], the insecticidal activity is reported as 100%. For CCc1cc(C(F)(C(F)(F)F)C(F)(F)F)cc(C)c1NC(=O)c1ccc(CNC(=O)CC2CC2)c(C)c1 [Compound 5-101], the insecticidal activity was 100%. CCc1cc(C(F)(C(F)(F)F)C(F)(F)F)cc(C)c1NC(=O)c1ccc(CNC(C)=O)c(C(F)(F)F)c1 [Compound 5-106] was tested, and the insecticidal activity was 100%. CCC(=O)NCc1ccc(C(=O)Nc2c(C)cc(C(F)(C(F)(F)F)C(F)(F)F)cc2CC)cc1C(F)(F)F [Compound 5-107] gave an insecticidal activity of 100%. CCc1cc(C(F)(C(F)(F)F)C(F)(F)F)cc(C)c1NC(=O)c1ccc(CNC(=O)C2CC2)c(C(F)(F)F)c1 [Compound 5-108] showed an insecticidal activity of 100%. Work on CCC(=O)NCc1ccc(C(=O)Nc2c(C)cc(C(F)(C(F)(F)F)C(F)(F)F)cc2CC)cc1[N+](=O)[O-] [Compound 5-115] yielded an insecticidal activity of 100%. Molecule CCc1cc(C(F)(C(F)(F)F)C(F)(F)F)cc(C)c1NC(=O)c1ccc(CNC(=O)C2CC2)c([N+](=O)[O-])c1 [Compound 5-116] has an insecticidal activity of 100%. CCc1cc(C(F)(C(F)(F)F)C(F)(F)F)cc(C)c1NC(=O)c1ccc(CNC(=O)CC2CC2)c([N+](=O)[O-])c1 [Compound 5-117] showed an insecticidal activity of 100%. CCc1cc(C(F)(C(F)(F)F)C(F)(F)C(F)(F)F)cc(C)c1NC(=O)c1ccc(CN)c(Cl)c1 (centres unmarked) [Compound 5-149] gave an insecticidal activity of 100%. In the case of CCC(=O)NCc1ccc(C(=O)Nc2c(C)cc(C(F)(C(F)(F)F)C(F)(F)C(F)(F)F)cc2CC)cc1Br (centres unmarked) [Compound 5-158], the insecticidal activity is reported as 100%. Molecule CCc1cc(C(F)(C(F)(F)F)C(F)(F)C(F)(F)F)cc(C)c1NC(=O)c1ccc(CNC(=O)CC2CC2)c(Br)c1 (centres unmarked) [Compound 5-160] has an insecticidal activity of 100%. Molecule Cc1cc(C(F)(C(F)(F)F)C(F)(F)F)cc(C)c1NC(=O)c1ccc(CNC(=O)c2cccnc2Cl)cc1F [Compound 5-182] has an insecticidal activity of 100%. In the case of CCc1cc(C(F)(C(F)(F)F)C(F)(F)F)cc(C)c1NC(=O)c1ccc(CN(C)C(=O)c2cccnc2Cl)cc1 [Compound 5-189], the insecticidal activity is reported as 100%. CCc1cc(C(F)(C(F)(F)F)C(F)(F)F)cc(C)c1NC(=O)c1ccc(CNC(C)=O)c(I)c1 [Compound 5-190] gave an insecticidal activity of 100%. In the case of CCC(=O)NCc1ccc(C(=O)Nc2c(C)cc(C(F)(C(F)(F)F)C(F)(F)F)cc2CC)cc1I [Compound 5-191], the insecticidal activity is reported as 100%. Molecule CCC(=O)NCc1ccc(C(=O)Nc2c(C)cc(C(F)(C(F)(F)F)C(F)(F)C(F)(F)F)cc2CC)cc1I (centres unmarked) [Compound 5-195] has an insecticidal activity of 100%. CCc1cc(C(F)(C(F)(F)F)C(F)(F)C(F)(F)F)cc(C)c1NC(=O)c1ccc(CNC(=O)C2CC2)c(I)c1 (centres unmarked) [Compound 5-196] showed an insecticidal activity of 100%. Molecule CCc1cc(C(F)(C(F)(F)F)C(F)(F)C(F)(F)F)cc(C)c1NC(=O)c1ccc(CNC(=O)CC2CC2)c(I)c1 (centres unmarked) [Compound 5-197] has an insecticidal activity of 100%. O=C(CC(F)(F)F)NCc1ccc(C(=O)Nc2c(Cl)cc(C(F)(C(F)(F)F)C(F)(F)F)cc2Cl)cc1Cl [Compound 5-232] gave an insecticidal activity of 100%. Cc1cc(C(F)(C(F)(F)F)C(F)(F)F)cc(OC(F)F)c1NC(=O)c1ccc(CN)c(Cl)c1 [Compound 5-293] gave an insecticidal activity of 100%. Molecule CC(=O)NCc1ccc(C(=O)Nc2c(Cl)cc(C(F)(C(F)(F)F)C(F)(F)C(F)(F)F)cc2Cl)cc1 (centres unmarked) [Compound 5-322] has an insecticidal activity of 100%. In the case of O=C(CC1CC1)NCc1ccc(C(=O)Nc2c(Cl)cc(C(F)(C(F)(F)F)C(F)(F)C(F)(F)F)cc2Cl)cc1 (centres unmarked) [Compound 5-325], the insecticidal activity is reported as 100%. CC(C)(C)OC(=O)NCc1ccc(C(=O)Nc2c(Cl)cc(C(F)(C(F)(F)F)C(F)(F)C(F)(F)F)cc2Cl)cc1Cl (centres unmarked) [Compound 5-329] showed an insecticidal activity of 100%. O=C(CC1CC1)NCc1ccc(C(=O)Nc2c(Cl)cc(C(F)(C(F)(F)F)C(F)(F)C(F)(F)F)cc2Cl)cc1Cl (centres unmarked) [Compound 5-330] gave an insecticidal activity of 100%. With Cc1cc(C(F)(C(F)(F)F)C(F)(F)F)cc(Cl)c1NC(=O)c1ccc(CNC(=O)CC(F)(F)F)cc1 [Compound 5-335] the insecticidal activity was 100%. For Cc1cc(C(F)(C(F)(F)F)C(F)(F)F)cc(Cl)c1NC(=O)c1ccc(CNC(=O)CC2CC2)cc1 [Compound 5-336], the insecticidal activity was 100%. In the case of CCc1cc(C(F)(C(F)(F)F)C(F)(F)F)cc(C)c1NC(=O)c1ccc(CNC(=O)C(F)(F)F)c(Br)c1 [Compound 5-349], the insecticidal activity is reported as 100%. CCc1cc(C(F)(C(F)(F)F)C(F)(F)F)cc(C)c1NC(=O)c1ccc(CNC(C)=O)c2ccccc12 [Compound 6-2] showed an insecticidal activity of 100%. In the case of CCC(=O)NCc1ccc(C(=O)Nc2c(C)cc(C(F)(C(F)(F)F)C(F)(F)F)cc2CC)c2ccccc12 [Compound 6-3], the insecticidal activity is reported as 100%. CCc1cc(C(F)(C(F)(F)F)C(F)(F)F)cc(C)c1NC(=O)c1ccc(CNC(=O)C2CC2)c2ccccc12 [Compound 6-4] showed an insecticidal activity of 100%. In the case of CCc1cc(C(F)(C(F)(F)F)C(F)(F)F)cc(C)c1NC(=O)c1ccc(CNC(=O)CC2CC2)c2ccccc12 [Compound 6-5], the insecticidal activity is reported as 100%. CCc1cc(C(F)(C(F)(F)F)C(F)(F)F)cc(C)c1NC(=O)c1ccc(CNC(=O)CC(F)(F)F)cn1 [Compound 7-6] showed an insecticidal activity of 100%. CCc1cc(C(F)(C(F)(F)F)C(F)(F)F)cc(C)c1NC(=O)c1ccc(CNC(=O)CC(F)(F)F)nc1 [Compound 8-6] gave an insecticidal activity of 100%. Work on CCc1cc(C(F)(C(F)(F)F)C(F)(F)F)cc(C)c1NC(=O)c1ccc(C(C)NC(=O)CC2CC2)cc1 (centres unmarked) [Compound 9-5] yielded an insecticidal activity of 100%. Molecule CCc1cc(C(F)(C(F)(F)F)C(F)(F)F)cc(C)c1NC(=O)c1ccc2c(c1)CCCC2NC(=O)CC(F)(F)F (centres unmarked) [Compound 11-6] has an insecticidal activity of 100%.
